The results in this text go back to patent US8906852B2 (MethylGene Inc., priority 2010, dated 2014).

T1 sequence (P35968 806-1356): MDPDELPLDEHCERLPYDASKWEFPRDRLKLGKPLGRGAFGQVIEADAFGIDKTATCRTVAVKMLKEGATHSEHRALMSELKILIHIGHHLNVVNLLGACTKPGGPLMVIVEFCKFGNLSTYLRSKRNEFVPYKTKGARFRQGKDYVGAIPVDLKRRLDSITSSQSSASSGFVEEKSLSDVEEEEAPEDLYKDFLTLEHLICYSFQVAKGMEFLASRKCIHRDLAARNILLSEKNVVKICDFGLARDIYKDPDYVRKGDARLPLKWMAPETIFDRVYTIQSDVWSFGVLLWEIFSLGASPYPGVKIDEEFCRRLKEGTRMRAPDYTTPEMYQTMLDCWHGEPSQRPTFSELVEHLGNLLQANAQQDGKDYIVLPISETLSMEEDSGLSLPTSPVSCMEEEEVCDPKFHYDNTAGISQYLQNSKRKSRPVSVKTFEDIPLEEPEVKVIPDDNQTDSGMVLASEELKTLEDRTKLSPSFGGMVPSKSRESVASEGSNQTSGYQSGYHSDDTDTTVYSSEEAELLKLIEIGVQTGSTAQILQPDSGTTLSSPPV

This test concerns the target T1, VEGFR/KDR (Homo sapiens, UniProt P35968).
T1 construct: made in house; host or cells: Sf9 cells (Spodoptera frugiperda), baculovirus
As to the kind of experiment: VEGFR/KDR kinase inhibition, DELFIA assay. It counts as biochemical. The conditions noted are these: ATP 0.6 uM (2x Km), enzyme 5 nM. The method in brief: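 Enzyme (5 nM) pre-incubated 4 min on ice with inhibitor and Mg-ATP (0.6 uM, 2× Km), then reacted 10-30 min at 30° C on immobilized poly(Glu4,Tyr). EDTA-quenched phosphotyrosine detected with Europium-labeled antibody by time-resolved fluorescence; IC50 from concentration series.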
In the case of `COCCN(Cc1ccc(-c2cc3nccc(Oc4ccc(NC(=O)NC5CC5)cc4F)c3s2)nc1)C(=O)COP(=O)(O)O` [Compound 34, 2-(((6-(7-(4-(3-cyclopropylureido)-2-fluorophenoxy)thieno[3,2-b]pyridin-2-yl)pyridin-3-yl)methyl)(2-methoxyethyl)amino)-2-oxoethyl dihydrogen phosphate], the IC50 (in general, the midpoint of a concentration-inhibition curve) is less than 50 nM.
To `COCCN(Cc1ccc(-c2cc3nccc(Oc4ccc(NC(=O)CC5CC5)cc4F)c3s2)nc1)C(C)=O` [Compound 42, 2-cyclopropyl-N-(3-fluoro-4-(2-(5-((N-(2-methoxyethyl)-acetamido)methyl)pyridin-2-yl)thieno[3,2-b]-pyridin-7-yloxy)phenyl)-acetamide] belongs 50 to 100 nM; to `CN1CCN(C(=O)Cn2cc(-c3cc4nccc(Oc5ccc(NC(=O)NC6CC6)cc5F)c4s3)nn2)CC1` [Compound 365], less than 50 nM.
To `O=C(O)CCN1CCN(C(=O)c2ccc(-c3cc4nccc(Oc5ccc(NC(=O)NC6CC6)cc5F)c4s3)nc2)CC1` [Compound 239, 3-(4-(6-(7-(4-(3-cyclopropylureido)-2-fluorophenoxy)thieno[3,2-b]pyridin-2-yl)nicotinoyl)piperazin-1-yl)propanoic acid tetraacetate] belongs less than 50 nM.
Consider `CCNC(=O)N(CCOC)Cc1ccc(-c2cc3nccc(Oc4ccc(NC(=O)NC5CC5)cc4F)c3s2)cc1` [Compound 195, 1-(4-(7-(4-cyclopropylaminocarbonylamino-2-fluorophenoxy)thieno[3,2-b]pyridin-2-yl)benzyl)-3-ethyl-1-(2-methoxyethyl)urea], for which the IC50 is less than 50 nM.
Next, `COCCNCc1ccc(-c2cc3nccc(Oc4ccc(NC(=O)CC5CC5)cc4F)c3s2)nc1` [Compound 13, 2-cyclopropyl-N-(3-fluoro-4-(2-(5-((2-methoxyethylamino)methyl)pyridin-2-yl)-thieno[3,2-b]pyridin-7-yloxy)phenyl)acetamide]: 50 to 100 nM.
To `NC1CCN(C(=O)Cn2cc(-c3cc4nccc(Oc5ccc(NC(=O)NC6CC6)cc5F)c4s3)nn2)CC1` [Compound 395] belongs less than 50 nM; to `CN(C)[C@@H]1CCN(C(=O)c2ccc(-c3cc4nccc(Oc5ccc(NC(=O)NC6CC6)cc5F)c4s3)nc2)C1` [Compound 227, (R)-1-cyclopropyl-3-(4-(2-(5-(3-(dimethylamino)pyrrolidine-1-carbonyl)pyridin-2-yl)thieno[3,2-b]pyridin-7-yloxy)-3-fluorophenyl)urea], less than 50 nM.
To `CC1(C)CN(Cc2ccc(-c3cc4nccc(Oc5ccc(NC(=O)NC6CC6)cc5F)c4s3)nc2)CCN1CCO` [Compound 500, 1-cyclopropyl-3-(3-fluoro-4-(2-(5-((4-(2-hydroxyethyl)-3,3-dimethylpiperazin-1-yl)methyl)pyridin-2-yl)thieno[3,2-b]pyridin-7-yloxy)phenyl)urea] belongs less than 50 nM; to `CC(C)NC(=O)Nc1ccc(Oc2ccnc3cc(-c4ccc(C(=O)N5CCCC5)cc4)sc23)c(F)c1` [Compound 128, 1-(3-fluoro-4-(2-(4-(pyrrolidine-1-carbonyl)phenyl)thieno[3,2-b]pyridin-7-yloxy)phenyl)-3-isopropylurea], less than 50 nM.
For `CNC(=O)c1cc2nccc(Oc3ccc(NC(=O)NC4CC4)cc3F)c2s1` [Compound 444], the IC50 was less than 50 nM.
`CCNC(=O)N1CC(OCc2ccc(-c3cc4nccc(Oc5ccc(NC(=O)NC6CC6)cc5F)c4s3)nc2)C1` [Compound 409]: the 50% inhibitory concentration (IC50) was less than 50 nM.
For `CCOC(=O)Cc1csc(NC(=O)Cn2cc(-c3cc4nccc(Oc5ccc(NC(=O)NC6CC6)cc5F)c4s3)nn2)n1` [Compound 375], the IC50 was less than 50 nM.
With `O=C(Nc1ccc(Oc2ccnc3cc(-c4cn(CCC(=O)N5CCOCC5)nn4)sc23)c(F)c1)NC1CC1` [Compound 377], the IC50 was less than 50 nM.
To `CN1CCN(C(=O)[C@@H]2CCCN2Cc2ccc(-c3cc4nccc(Oc5ccc(NC(=O)NC6CC6)cc5F)c4s3)nc2)CC1` [Compound 488, (S)-1-cyclopropyl-3-(3-fluoro-4-(2-(5-((2-(4-methylpiperazine-1-carbonyl)pyrrolidin-1-yl)methyl)pyridin-2-yl)thieno[3,2-b]pyridin-7-yloxy)phenyl)urea] belongs less than 50 nM.
To `O=C(Nc1ccc(Oc2ccnc3cc(-c4cn(CCC(=O)N5CCCC5)nn4)sc23)c(F)c1)NC1CC1` [Compound 380] belongs less than 50 nM.
Next, `CN1CCC(CN2CCN(Cc3ccc(-c4cc5nccc(Oc6ccc(NC(=O)NC7CC7)cc6F)c5s4)nc3)CC2)CC1` [Compound 54-D, 1-cyclopropyl-3-(3-fluoro-4-(2-(5-((4-((1-methylpiperidin-4-yl)methyl)piperazin-1-yl)methyl)pyridin-2-yl)thieno[3,2-b]pyridin-7-yloxy)phenyl)urea]: less than 50 nM; `CN(C)[C@H]1CCN(C(=O)Cn2cc(-c3cc4nccc(Oc5ccc(NC(=O)NC6CC6)cc5F)c4s3)nn2)C1` [Compound 376]: less than 50 nM; `C[C@H]1CN(Cc2ccc(-c3cc4nccc(Oc5ccc(NC(=O)NC6CC6)cc5F)c4s3)nc2)CCN1C(=O)CO` [Compound 529, (S)-1-cyclopropyl-3-(3-fluoro-4-(2-(5-((4-(2-hydroxyacetyl)-3-methylpiperazin-1-yl)methyl)pyridin-2-yl)thieno[3,2-b]pyridin-7-yloxy)phenyl)urea]: less than 50 nM.
`CN1CCN(C(=O)NC2CCN(Cc3ccc(-c4cc5nccc(Oc6ccc(NC(=O)NC7CC7)cc6F)c5s4)nc3)CC2)CC1` [Compound 357, N-(1-((6-(7-(4-(3-Cyclopropylureido)-2-fluorophenoxy)thieno[3,2-b]pyridin-2-yl)pyridin-3-yl)methyl)piperidin-4-yl)-4-methylpiperazine-1-carboxamide] returned a half-inhibitory concentration (IC50) of less than 50 nM.
With `O=C(Nc1ccc(Oc2ccnc3cc(-c4ccc(C(=O)NCCN5CCOCC5)cn4)sc23)c(F)c1)NC1CC1` [Compound 235, 6-(7-(4-(3-cyclopropylureido)-2-fluorophenoxy)thieno[3,2-b]pyridin-yl)-N-(2-morpholinoethyl)nicotinamide], the IC50 was less than 50 nM.
To `O=C(Nc1ccc(Oc2ccnc3cc(C4=CCNCC4)sc23)c(F)c1)NC1CC1` [Compound 271-A, 1-Cyclopropyl-3-(3-fluoro-4-(2-(1,2,3,6-tetrahydropyridin-4-yl)thieno[3,2-b]pyridin-7-yloxy)phenyl)urea] belongs 50 to 100 nM; to `COCCNCc1ccc(-c2cc3nccc(Oc4ccc(NC(=S)NC5CC5)cc4F)c3s2)nc1` [Compound 502, 1-Cyclopropyl-3-(3-fluoro-4-(2-(5-((2-methoxyethylamino)methyl)pyridin-2-yl)thieno[3,2-b]pyridin-7-yloxy)phenyl)thiourea], less than 50 nM.
`COCCN(Cc1cnc(-c2cc3nccc(Oc4ccc(NC(=O)NC5CC5)cc4F)c3s2)n1C)C(C)=O` [Compound 212, N-((2-(7-(4-(3-cyclopropylureido)-2-fluorophenoxy)thieno[3,2-b]pyridin-2-yl)-1-methyl-1H-imidazol-5-yl)methyl)-N-(2-methoxyethyl)acetamide] came in with a 50% inhibitory concentration (IC50) of less than 50 nM.
To `COCCNCc1ccc(-c2cc3nccc(Oc4ccc(NC(=O)NC5CC5)nc4)c3s2)nc1` [Compound 29, 1-cyclopropyl-3-(5-(2-(5-((2-methoxyethylamino)methyl)pyridin-2-yl)thieno[3,2-b]-pyridin-7-yloxy)pyridin-2-yl)urea] belongs 100 to 250 nM.
